Assay results published in ChEMBL document CHEMBL2151011, “Substituted pyridines as sodium channel blockers: patent highlight” (ACS Med Chem Lett, 2012).

Legend:
[1] = target: T1, Sodium channel protein type 9 subunit alpha (Homo sapiens, UniProt Q15858); test: Blockade of Nav1.7 by FLIPR TETRA sodium dye assay in presence of KCl salt
[2] = target: T1, Sodium channel protein type 9 subunit alpha; test: Blockade of Nav1.7 by electrophysiological patch clamp assay

T1 sequence (Q15858 whole entry): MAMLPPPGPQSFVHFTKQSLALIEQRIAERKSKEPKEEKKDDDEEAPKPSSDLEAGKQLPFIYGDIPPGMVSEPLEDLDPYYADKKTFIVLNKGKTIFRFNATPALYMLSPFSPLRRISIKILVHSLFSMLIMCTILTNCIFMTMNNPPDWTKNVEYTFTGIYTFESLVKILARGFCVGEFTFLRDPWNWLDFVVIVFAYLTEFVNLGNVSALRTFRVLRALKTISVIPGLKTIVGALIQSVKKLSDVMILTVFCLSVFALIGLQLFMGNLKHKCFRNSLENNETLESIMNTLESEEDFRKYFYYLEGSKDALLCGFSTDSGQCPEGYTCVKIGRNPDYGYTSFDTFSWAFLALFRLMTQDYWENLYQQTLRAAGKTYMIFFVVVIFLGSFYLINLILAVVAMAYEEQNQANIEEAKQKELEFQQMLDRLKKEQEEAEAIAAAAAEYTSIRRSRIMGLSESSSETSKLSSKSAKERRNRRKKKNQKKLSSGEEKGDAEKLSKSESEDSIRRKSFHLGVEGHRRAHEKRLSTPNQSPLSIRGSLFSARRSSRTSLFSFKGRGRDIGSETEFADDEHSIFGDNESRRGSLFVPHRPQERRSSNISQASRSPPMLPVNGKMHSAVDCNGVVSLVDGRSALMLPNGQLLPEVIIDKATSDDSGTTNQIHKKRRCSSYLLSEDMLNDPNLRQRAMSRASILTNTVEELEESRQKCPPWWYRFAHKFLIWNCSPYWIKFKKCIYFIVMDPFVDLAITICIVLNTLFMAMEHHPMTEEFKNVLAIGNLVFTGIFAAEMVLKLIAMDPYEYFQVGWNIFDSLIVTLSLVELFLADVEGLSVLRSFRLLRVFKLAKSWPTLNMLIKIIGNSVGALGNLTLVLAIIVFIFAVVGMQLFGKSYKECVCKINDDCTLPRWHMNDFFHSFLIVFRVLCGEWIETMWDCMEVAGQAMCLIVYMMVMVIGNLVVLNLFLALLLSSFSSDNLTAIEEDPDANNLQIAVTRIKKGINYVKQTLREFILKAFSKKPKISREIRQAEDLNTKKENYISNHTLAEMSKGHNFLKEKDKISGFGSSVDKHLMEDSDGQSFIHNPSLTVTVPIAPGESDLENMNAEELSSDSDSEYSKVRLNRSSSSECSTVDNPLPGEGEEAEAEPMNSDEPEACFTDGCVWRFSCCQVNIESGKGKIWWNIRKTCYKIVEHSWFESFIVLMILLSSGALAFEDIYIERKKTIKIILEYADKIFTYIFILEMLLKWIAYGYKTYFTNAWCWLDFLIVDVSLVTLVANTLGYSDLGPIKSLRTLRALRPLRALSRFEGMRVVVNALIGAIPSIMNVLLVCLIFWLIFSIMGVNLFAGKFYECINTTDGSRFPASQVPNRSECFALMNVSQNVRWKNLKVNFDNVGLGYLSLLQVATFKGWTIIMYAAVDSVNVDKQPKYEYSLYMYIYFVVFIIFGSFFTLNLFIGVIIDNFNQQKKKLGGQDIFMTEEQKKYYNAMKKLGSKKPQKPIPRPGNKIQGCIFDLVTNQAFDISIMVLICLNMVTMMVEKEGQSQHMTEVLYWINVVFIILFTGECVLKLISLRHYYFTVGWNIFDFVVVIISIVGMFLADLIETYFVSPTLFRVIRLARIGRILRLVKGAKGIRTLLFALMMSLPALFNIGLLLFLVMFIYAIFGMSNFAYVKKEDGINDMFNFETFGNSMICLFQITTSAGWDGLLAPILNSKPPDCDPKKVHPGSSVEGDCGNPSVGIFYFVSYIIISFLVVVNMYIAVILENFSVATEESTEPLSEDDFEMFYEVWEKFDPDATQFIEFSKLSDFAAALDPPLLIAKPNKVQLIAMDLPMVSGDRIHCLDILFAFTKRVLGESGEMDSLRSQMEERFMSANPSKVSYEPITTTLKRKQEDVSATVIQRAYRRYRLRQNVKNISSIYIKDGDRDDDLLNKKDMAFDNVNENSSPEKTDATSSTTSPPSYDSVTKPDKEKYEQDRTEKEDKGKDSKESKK

- IC50 [1]: 140 nM
- Ki [2]: 195 nM
Compound: O=C(N[C@@H](CO)C(=O)Nc1cccc(-c2ccc(Oc3ccc(F)cc3)cc2)n1)c1ccccn1
